Patent US12459951B2, “Compounds that interact with RAS superfamily proteins for treatment of cancers, inflammatory diseases, rasopathies, and fibrotic disease” (SHY Therapeutics, LLC, priority 2022, dated 2025)
Values belong to the molecule of their own block, whether it stands above or below them.

Assays:
[1] = tested on: Akt phosphorylation; assay: Akt Phosphorylation Assay (western blot), Panc-1; format: cell-based, human; details: at 10 μM, * = activation
Protocol: Protocol for Western Akt Cell-Based Phosphorylation Assay
This assay is referred to as the “Akt Phosphorylation Assay” throughout this application.
Human tumor-derived pancreatic cancer cell line Panc-1 (expressing KRas G12D mutant) was purchased from American Type Culture Collection and grown in complete DMEM-High Glucose supplemented with penicillin (100 U/mL), streptomycin (100 μg/mL), and 10% heat-inactivated FBS at 37° C. in a humidified incubator with 5% CO2.
Method 1: Cells were plated at 350000 cells/well density in a 12-well plate, allowed 3 hours to adhere to the plate, then starved in the appropriate medium in the presence of 0.5% FBS overnight. The small molecules to be tested were added to the cells in the final concentration of 10 μM in the presence of 0.3% DMSO for 6 hours incubation at 37° C. Next, cells were stimulated with 1.5 ng/ml EGF for 15 minutes then cells were lysed with lysis buffer containing 1% Triton X-100, EDTA, and Halt™ Protease & Phosphatase Inhibitor Cocktail (Thermo Scientific). Protein concentration was assessed by BCA protein assay (Thermo Scientific). Phosphorylation level of Akt was determined by western blot.
Method 2: Cells were plated at 350000 cells/well density in a 12-well plate in 10% FBS. The next day small molecules to be tested were added to the cells in the final concentration of 10 μM in the presence of 0.3% DMSO for 6 hours incubation at 37° C. For IC50 value determination, serial dilutions of compounds were added to cells under the same conditions. Next, cells were lysed with lysis buffer containing 1% Triton X-100, EDTA, and Halt™ Protease & Phosphatase Inhibitor Cocktail (Thermo Scientific). Protein concentration was assessed by BCA protein assay (Thermo Scientific). Phosphorylation level of Akt was determined by western blot.
Western blot protocol: Equal amounts of protein (15-50 μg) were separated by SDS-PAGE and transferred to nitrocellulose membranes (Invitrogen by Thermo Fisher Scientific). The membrane was stained with Ponceau S Stain (Boston BioProducts) to verify uniform protein loading. Membranes were blocked with 10% milk and phosphorylation levels of Akt were assessed by incubating overnight at 4° C. with anti-phospho-Akt (Ser473) antibody (Cell Signaling) followed by HRP-conjugated secondary antibody (Jackson Immunoresearch, West Grove, PA). Bands were incubated in Amersham ECL Prime Western Blotting Detection Reagent (GE Healthcare) and visualized using the ChemiDoc MP imaging system (Bio-Rad).

[2] = tested on: KRas G12D mutant; assay: Ras GTP Binding Domain Inhibition Assay (Ras Superfamily Assay); details: 20 μM compound; for KRas G12D mutant + SOS: % inh.: with SOS; for KRas G12D mutant: % inh.: without SOS
From the text: (§1) Biological Example 3: Ras GTP Binding Domain Inhibition Assay
(§2) The assays described in Example 3 are collectively referred to as the “Ras Superfamily Assay” throughout this application.
(§3) A Ras Superfamily Activity Assay (as disclosed in International Application No. PCT/US2018/038613, filed Jun. 20, 2018, which is incorporated by reference in its entirety) was used as a specific assay to evaluate compounds against the following for the following Ras Superfamily proteins: KRas wild type, KRas Q61H mutant, KRas G12C mutant, KRas G12D mutant, Rac-1, and Rho-A.
(§4) • 25 mM Tris-HCl, pH 7.4 • 27 mM KCl • 137 mM NaCl • 1 mM MgCl2 • 1 mM DTT Buffer-II: • 50 mM Tris-HCl, pH 7.0 • 1 mM MgCl2 • 1 mM DTT
(§5) The small GTPases proteins: KRas wild type. KRas Q61H mutant, KRas G12C mutant, KRas G12D mutants, Rac-1, and Rho-A were expressed as His-tagged proteins. In addition, the Guanosine nucleotide Exchange Factor (GEF) Sos protein (residues 556-1049) was expressed as a His-tagged protein. In cells, the guanine nucleotide exchange factor Sos protein promotes activation of Ras proteins by stimulating an exchange of GDP for GTP. The inclusion of Sos to the Ras GTP binding domain inhibition assay may be considered as an alternative representation of physiological cellular conditions for evaluating the inhibitory activity of some of the tested small molecules.
(§6) For the assay, all purified small GTPases proteins were diluted in Buffer-I or Buffer-II to a final concentration of 10-30 μg/mL. 200 μL of each diluted protein was added to a nickel-coated 96-well plate and incubated overnight at 4° C. Then the protein solution was discarded and 200 μL of Buffer-I or Buffer-II was added to each well in the presence of 1% DMSO. Compounds to be tested were added to the protein-coated wells at final concentration of 20 μM, and incubated for 3 hours at room temperature with and without 10-30 μg/mL of Sos added to the final hour of the incubation. When performing IC50 measurements a serial dilution of all tested concentrations was added. Then Cy3-GTP or Cy5-GTP was added to each well to a final concentration of 100 nM. The labeled GTP was incubated for 45 minutes at room temperature. Following GTP incubation, wells were washed 3× in Buffer-I or Buffer-II and 200 μL of Buffer-I or Buffer-II was added to each well. Following washes, the amount of bound labeled-GTP was measured using a SpectraMax M3 (Molecular Devices).

[3] = tested on: KRas wild type; assay: as above; details: 20 μM compound; for KRas wild type + SOS: % inh.: with SOS; for KRas wild type: % inh.: without SOS
From the text: as §1, §2, §3, §4, §5, §6

[4] = target: T1, Rac-1 (Homo sapiens, UniProt P63000); assay: as above; details: read-out: Rac-1: % inh.
T1 construct: made in house
From the text: as §1, §2, §3, §4, §5, §6

KRas G12D mutant + SOS: % inh. [2]: D (D = 76-100% inhibition)
KRas G12D mutant: % inh. [2]: D (D = 76-100% inhibition)
KRas wild type + SOS: % inh. [3]: B (B = 26-49% inhibition)
KRas wild type: % inh. [3]: C (C = 50-75% inhibition)
inhibition at 20 µM [4]: 76 to 100%
SMILES: CCOc1ccnc(Nc2nc(-c3nccn3C)nn3cc(-c4ccn(C5CC5)n4)c(C)c23)c1 [Compound 141, 6-(1-Cyclopropyl-1H-pyrazol-3-yl)-N-(4-ethoxypyridin-2-yl)-5-methyl-2-(1-methyl-1H-imidazol-2-yl)pyrrolo[2,1-f][1,2,4]triazin-4-amine]
% inh of Akt phosphorylation in Panc-1 [1]: A (1-25% inhibition)

KRas G12D mutant + SOS: % inh. [2]: D (D = 76-100% inhibition)
KRas G12D mutant: % inh. [2]: D (D = 76-100% inhibition)
KRas wild type + SOS: % inh. [3]: D (D = 76-100% inhibition)
KRas wild type: % inh. [3]: D (D = 76-100% inhibition)
inhibition at 20 µM [4]: 76 to 100%
SMILES: Cc1c(-c2ccn(C)n2)cn2nc(-c3nccn3C)nc(Nc3cc(OC(F)(F)F)ccn3)c12 [Compound 127, 5-Methyl-2-(1-methyl-1H-imidazol-2-yl)-6-(1-methyl-1H-pyrazol-3-yl)-N-(4-(trifluoromethoxy)pyridin-2-yl)pyrrolo[2,1-f][1,2,4]triazin-4-amine]
% inh of Akt phosphorylation in Panc-1 [1]: D* (85-100% activation)

KRas G12D mutant + SOS: % inh. [2]: D (D = 76-100% inhibition)
KRas G12D mutant: % inh. [2]: D (D = 76-100% inhibition)
KRas wild type + SOS: % inh. [3]: D (D = 76-100% inhibition)
KRas wild type: % inh. [3]: D (D = 76-100% inhibition)
inhibition at 20 µM [4]: 76 to 100%
SMILES: Cc1c(-c2ccn(C)n2)cn2nc(-c3nccn3C)nc(Nc3ccccn3)c12 [Compound 118, 5-Methyl-2-(1-methyl-1H-imidazol-2-yl)-6-(1-methyl-1H-pyrazol-3-yl)-N-(pyridin-2-yl)pyrrolo[2,1-f][1,2,4]triazin-4-amine]
% inh of Akt phosphorylation in Panc-1 [1]: D* (85-100% activation)

KRas G12D mutant + SOS: % inh. [2]: C (C = 50-75% inhibition)
KRas G12D mutant: % inh. [2]: C (C = 50-75% inhibition)
KRas wild type + SOS: % inh. [3]: D (D = 76-100% inhibition)
KRas wild type: % inh. [3]: C (C = 50-75% inhibition)
inhibition at 20 µM [4]: 76 to 100%
SMILES: COc1cncnc1Nc1nc(-c2nccn2C)nn2cc(-c3ccn(C)n3)c(C)c12 [Compound 107, N-(5-Methoxypyrimidin-4-yl)-5-methyl-2-(1-methyl-1H-imidazol-2-yl)-6-(1-methyl-1H-pyrazol-3-yl)pyrrolo[2,1-f][1,2,4]triazin-4-amine]
% inh of Akt phosphorylation in Panc-1 [1]: C* (46-84% activation)

KRas G12D mutant + SOS: % inh. [2]: C (C = 50-75% inhibition)
KRas G12D mutant: % inh. [2]: C (C = 50-75% inhibition)
KRas wild type + SOS: % inh. [3]: C (C = 50-75% inhibition)
KRas wild type: % inh. [3]: D (D = 76-100% inhibition)
inhibition at 20 µM [4]: 76 to 100%
SMILES: Cc1c(-c2ccn(C)n2)cn2nc(-c3nccn3C)nc(Nc3cc4n(n3)CCO4)c12 [Compound 124, N-(5-Methyl-2-(1-methyl-1H-imidazol-2-yl)-6-(1-methyl-1H-pyrazol-3-yl)pyrrolo[2,1-f][1,2,4]triazin-4-yl)-2,3-dihydropyrazolo[5,1-b]oxazol-6-amine]
% inh of Akt phosphorylation in Panc-1 [1]: C* (46-84% activation)

Further lines, the molecule ahead of its results:

SMILES: Cc1c(-c2ccn(C(C)C)n2)cn2nc(-c3ccccn3)nc(O)c12 [Compound 8, 6-(1-Isopropyl-1H-pyrazol-3-yl)-5-methyl-2-(pyridin-2-yl)pyrrolo[2,1-f][1,2,4]triazin-4-ol]
% inh of Akt phosphorylation in Panc-1 [1]: 0 (0% inhibition)
KRas G12D mutant + SOS: % inh. [2]: A (A = 1-25% inhibition)
KRas G12D mutant: % inh. [2]: 0 (0 = 0% inhibition)
KRas wild type + SOS: % inh. [3]: 0 (0 = 0% inhibition)
KRas wild type: % inh. [3]: A (A = 1-25% inhibition)
inhibition at 20 µM [4]: 0%

SMILES: CO[C@H]1C[C@H](Nc2nc(-c3nccn3C)nn3cc(-c4cccnc4)c(C)c23)C1 [Compound 151, N-((1r,3r)-3-Methoxycyclobutyl)-5-methyl-2-(1-methyl-1H-imidazol-2-yl)-6-(pyridin-3-yl)pyrrolo[2,1-f][1,2,4]triazin-4-amine]
% inh of Akt phosphorylation in Panc-1 [1]: C* (46-84% activation)
KRas G12D mutant + SOS: % inh. [2]: D (D = 76-100% inhibition)
KRas G12D mutant: % inh. [2]: B (B = 26-49% inhibition)
KRas wild type + SOS: % inh. [3]: C (C = 50-75% inhibition)
KRas wild type: % inh. [3]: C (C = 50-75% inhibition)
inhibition at 20 µM [4]: 50 to 75%

SMILES: Cc1c(-c2ccn(C(C)C)n2)cn2nc(-c3nccn3C)nc(Nc3nccc(OCCN(C)C)n3)c12 [Compound 96, N-(4-(2-(Dimethylamino)ethoxy)pyrimidin-2-yl)-6-(1-isopropyl-1H-pyrazol-3-yl)-5-methyl-2-(1-methyl-1H-imidazol-2-yl)pyrrolo[2,1-f][1,2,4]triazin-4-amine]
% inh of Akt phosphorylation in Panc-1 [1]: D* (85-100% activation)
KRas G12D mutant + SOS: % inh. [2]: D (D = 76-100% inhibition)
KRas G12D mutant: % inh. [2]: D (D = 76-100% inhibition)
KRas wild type + SOS: % inh. [3]: D (D = 76-100% inhibition)
KRas wild type: % inh. [3]: D (D = 76-100% inhibition)
inhibition at 20 µM [4]: 76 to 100%

SMILES: CO[C@H]1C[C@H](Nc2nc(-c3nccn3C)nn3cc(-c4ccncc4)c(C)c23)C1 [Compound 159, N-((1r,3r)-3-Methoxycyclobutyl)-5-methyl-2-(1-methyl-1H-imidazol-2-yl)-6-(pyridin-4-yl)pyrrolo[2,1-f][1,2,4]triazin-4-amine]
% inh of Akt phosphorylation in Panc-1 [1]: B (26-49% inhibition)
KRas G12D mutant + SOS: % inh. [2]: 0 (0 = 0% inhibition)
KRas G12D mutant: % inh. [2]: 0 (0 = 0% inhibition)
KRas wild type + SOS: % inh. [3]: 0 (0 = 0% inhibition)
KRas wild type: % inh. [3]: A (A = 1-25% inhibition)
inhibition at 20 µM [4]: 0%
